Test results from BindingDB's records for PubMed 7853174 (Merck Research Laboratories, 1995).

Target: T1, Type-2 angiotensin II receptor (Rattus norvegicus, UniProt P35351)
T1 sequence (P35351 whole entry): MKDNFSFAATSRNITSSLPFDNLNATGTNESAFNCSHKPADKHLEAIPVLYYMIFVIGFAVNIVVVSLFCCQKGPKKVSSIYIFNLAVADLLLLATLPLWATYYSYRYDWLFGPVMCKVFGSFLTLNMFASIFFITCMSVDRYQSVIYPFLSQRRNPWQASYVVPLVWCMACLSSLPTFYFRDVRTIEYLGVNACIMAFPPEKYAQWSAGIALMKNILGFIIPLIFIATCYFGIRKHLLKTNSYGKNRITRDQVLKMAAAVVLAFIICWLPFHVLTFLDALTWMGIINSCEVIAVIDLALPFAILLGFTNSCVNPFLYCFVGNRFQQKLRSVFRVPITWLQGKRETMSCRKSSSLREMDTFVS

Ki: 5.77 µM
Compound: CCCc1nc(C(F)(F)C(F)(F)F)c(C(=O)O)n1Cc1ccc(-c2ccccc2-c2nnn[nH]2)cc1 [CAS_124750-95-4]
